Experimental data taken from patent publication US20230407304A1, “USE OF MICRORNA INHIBITION TO PREVENT AND TREAT OSTEOARTHRITIS AND OTHER INFLAMMATORY DISEASES” (VIRGINIA COMMONWEALTH UNIVERSITY, priority 2020, published 2023).
Entries after “also recorded” stand apart in the source; their conditions may differ.

Key:
[1] = test system: rat articular chondrocytes (rArCs); experiment: WNT/β-catenin agonist or antagonist treatment of rArCs with or without TNF-α; format: cell-based
[2] = test system: rat articular chondrocytes (rArCs); experiment: WNT/β-catenin agonist or antagonist treatment of rArCs with or without IL-1β; format: cell-based
WNT/β-catenin = conditions: literature; cited from earlier work
[3] = test system: rat articular chondrocytes (rArCs); experiment: Stimulation of rArCs with IL-1β or TNF-α (total DNA, MMP-13, PGE2); format: cell-based; conditions: 10 ng/mL IL-1β or 5 and 10 ng/mL TNF-α, 24 hours, vs control
Procedure: FIGS. […] (FIG. 6A) Total DNA was measured from the cell monolayer and (FIG. 6B) MMP-13, and (FIG. 6C) PGE2 proteins were measured from the conditioned media. Groups not sharing a letter (D, C, B or A over bar) are statistically significant using an alpha=0.05.
Rat articular chondrocytes (rArCs) were isolated using a previously established protocol (see Scott, supra). Briefly, rArCs were isolated from femoral condyles and tibial plateaus from 100-125 g male Sprague Dawley rats. Cartilage was sterilely sliced from the articular surfaces using a surgical blade and placed in Dulbecco's modification of Eagle's medium with 1 g/L glucose, 50 U/mL penicillin and streptomycin (pen-strep) (DMEM). […]
rArCs were plated at a seeding density of 15,000 cells/cm^2 and fed with DMEM supplemented with 10% FBS and 50 U/mL pen-strep. […] MMP-13 (ANASpec, Fremont, CA) and PGE2 (R&D Systems) were measured in the conditioned media by a microplate reader at ex/em 490 nm/520 nm, and 450 nm absorbance, respectively, in accordance with the manufacturer's directions. […] Cell layers were thawed, and mechanically lysed by ultrasonication (40V, 10s/well) (VCX-120; Vibra-cell, Newtown, CT) and DNA was measured using QuantiFluor dsDNE system kit (Promega, Madson, WI) and quantified on a fluorescence plate reader at ex/em 504 nm/531 nm. […]

articular chondrocytes = experiment: miR-122 / miR-451 transfection of articular chondrocytes in presence and absence of IL-1β; format: cell-based, rat
Source text: The following Examples with these microRNAs established their functions in articular chondrocytes in the presence and absence of the inflammatory cytokine IL-1β. Since IL-1β signaling is a major contributor of OA, a well-established model of creating an osteoarthritic phenotype in vitro is to stimulate cell cultures with this cytokine. This study first established that both these microRNAs were elevated in OA in the bilateral ACLT model.
The miR-451 miR (SEQ ID NO:10) was originally chosen as a control miR but it had surprising and very specific functions. […] A series of transfections and inhibition experiments with these microRNAs confirmed that these changes were due to the microRNAs themselves.

[4] = test system: rat articular chondrocytes (rArCs); experiment: miR mimic or inhibitor transfection of rArCs with or without TNF-α stimulation; format: cell-based
Procedure: FIGS. 7A-7F show assessment of miR-122 and miR-451 transfection or inhibition on TNF-α stimulated rat articular chondrocytes. rArCs were transfected at 60% confluence with miR-122, miR-451, miR-122-inhibitor (122-Inh), miR-451 inhibitor (451-Inh), or an empty vehicle (Lipo) for 24 hours followed by 24 hours with or without 10 ng/mL TNF-α stimulation. (FIG. 7A, 7D) Total DNA was measured from the cell monolayer and (FIG. 7B, 7E) MMP-13 and (FIG. 7C, 7F) PGE2 proteins were measured from the conditioned media. Groups not sharing a letter (A, B or C over bar) are statistically significant using an alpha=0.05.
Rat articular chondrocytes (rArCs) were isolated using a previously established protocol (see Scott, supra). Briefly, rArCs were isolated from femoral condyles and tibial plateaus from 100-125 g male Sprague Dawley rats. Cartilage was sterilely sliced from the articular surfaces using a surgical blade and placed in Dulbecco's modification of Eagle's medium with 1 g/L glucose, 50 U/mL penicillin and streptomycin (pen-strep) (DMEM). After removing DMEM, cartilage was incubated with 0.05% trypsin (20 mins, 37° C.), rinsed with DMEM (50 U/mL pen-strep, 20 mins, 37° C.), and then digested with sterile-filtered 0.03% collagenase type II solution (Worthington Biochemical, Lakewood, NJ) in Hank's balanced salt solution (16 hrs, 37° C.). Digestion was quenched with an equal volume of DMEM containing 10% fetal bovine serum (FBS) and 50 U/mL pen-strep, strained through a 40 μm strainer (Greiner Bio-one, North Carolina), spun down at 500×g for 10 mins and plated at a seeding density of 15,000 cells/cm^2. These cells are at passage 0. All experiments used cells at passage 1.
rArCs were plated at a seeding density of 15,000 cells/cm^2 and fed with DMEM supplemented with 10% FBS and 50 U/mL pen-strep. Media were changed 24 hours after plating and then every 48 hours. After treatments described below, conditioned media were collected, centrifuged at 1,000×g for 10 mins to remove cellular debris, aliquoted, and stored at −80° C. until assayed. Cell monolayers were rinsed twice with 1 mL of 1×PBS, lysed in 500 μL of 0.05% Triton X-100, and frozen for later DNA analysis. MMP-13 (ANASpec, Fremont, CA) and PGE2 (R&D Systems) were measured in the conditioned media by a microplate reader at ex/em 490 nm/520 nm, and 450 nm absorbance, respectively, in accordance with the manufacturer's directions. Data were normalized to the DNA content of the cell monolayer. Cell layers were thawed, and mechanically lysed by ultrasonication (40V, 10s/well) (VCX-120; Vibra-cell, Newtown, CT) and DNA was measured using QuantiFluor dsDNE system kit (Promega, Madson, WI) and quantified on a fluorescence plate reader at ex/em 504 nm/531 nm. […]

[5] = miR transfection of articular chondrocytes
[6] = miR transfection plus IL-1β stimulation

## [Cl-].[Li+] [LiCl, lithium chloride]
[1]
  total DNA: decreased total DNA to similar levels; also recorded: marginally decreased this
[2]
  total DNA: decreased total DNA

## Cn1ncnc2c(=O)n(C)c(=O)nc1-2 [PKF, PKF-118-310]
WNT/β-catenin
  IL-1β and TNF-α induced cartilage degradation: block IL-1β and TNF-α induced cartilage degradation
[2]
  total DNA: drastically decreased total DNA

## IL-1β: inflammatory cytokine (Peprotech) used to stimulate chondrocyte cultures
[3]
  total DNA of cell monolayer: no differences in DNA

## PKF115-584
WNT/β-catenin
  IL-1β and TNF-α induced cartilage degradation: block IL-1β and TNF-α induced cartilage degradation

## TNF-α
[3]
  total DNA of cell monolayer: no differences in DNA

## miR-122: mirVana miRNA mimic rno-miR-122-5p; UGGAGUGUGACAAUGGUGUUUG (UGGAGUGUGACAAUGGUGUUUG; listed as RNA, chemistry not given here)
Articular chondrocytes; [5]
  proliferation: stimulated proliferation
  total DNA: increased total DNA
Articular chondrocytes; [6]
  IL-1β-stimulated MMP-13: able to prevent the IL-1β-stimulated increase
  IL-1β-stimulated PGE2: able to prevent the IL-1β-stimulated increase
  growth factor VEGF: prevented IL-1β-stimulated increase
  inflammatory mediators, cytokines, chemokines (IL-1α, IL-2, IL-4, IL-6, GM-CSF, MIP-1A; RANTES for miR-122): prevented IL-1β-stimulated increase
[4]; 14.5 nM mimic 24 hours, then 10 ng/mL TNF-α 24 hours
  change of total DNA on TNF-α treatment in transfected cells: modestly decreased total DNA
[4]; 14.5 nM mimic, 24 hours, vs Lipo control
  total DNA after mimic transfection: increased total DNA
